According to patent US4939134A, “26-aminocholesterol and derivatives and analogs thereof in the regulation of cholesterol accumulation in body tissue” (New York University, priority 1988, dated 1990):
“Also recorded” adds a separate entry of the source.

What was measured:
[1] = test system: LDLR (+) Human Fibroblasts; test: Total 125I-LDL binding to human fibroblasts; format: cell-based; settings: for 125I-LDL BINDING: 10 ug/ml 125I-LDL, 4 h, 37° C., n = 3, untreated 49.7; for LDL-binding (in words): human fibroblasts / tissue cells
Experimental: Normal LDLR(+) human fibroblasts (GM3440) were obtained from the National Institute of General Medical Sciences Human Genetic Cell Repository. Stock fibroblast monolayers were maintained in T-75 disposable Nunc flasks, in a medium comprising 10 ml of MEM (Eagle's Minimum Essential Medium with Earl's salts, pH 7.4) supplemented with 10% (v/v) fetal bovine serum (FBS), 2% (v/v) non-essential and essential amino acids, 1% (v/v) MEM vitamins, 1% L-glutamine (292 ug/ml), 1% penicillin (100 U/ml)-streptomycin (100 ug/ml). The fibroblast stock was maintained at 37° C. in a humidified atmosphere of 5% CO2 and 95% air.
For experiments using fibroblasts, confluent stock cultures (5-18 passages) were washed once with Dulbecco's PBS (phosphate buffered saline) prior to the addition of 3 ml aliquots of experimental MEM containing 25% (v/v) D2 O, 9% (v/v) dilapidated FBS, 1% FBS (v/v), 1% MEM vitamins and L-glutamine, and 2% of essential and non-essential amino acids and 20 mM HEPES buffer.
(§1) The fibroblast and hepatoblastoma cells were cultured in media containing 25% D2 O and 1% FBS in order to determine de novo cholesterol synthesis under conditions that permit receptor mediated cholesterol transport, according to the method of Easterman & Javitt et al., J. Lipid Res., 26: 950-954 (1985). Dish cultures of each cell type were prepared, and 26-aminocholesterol, dissolved in N,N-dimethylformamide (DMF, 9 ul per dish, 0.3% v/v) was added to each culture. The cells were then grown to confluence (96 hours, day 5). […] Duplicate or triplicate dishes containing 9 ul of DMF, but without 26-aminocholesterol, were used as controls.
(§2) LDL (d, 1.019-1.03) was isolated by sequential preparative ultracentrifugation of normal human plasma, using solid KBr for density adjustment, according to the methods of Havel et al., J. Clin. Invest., 34: 1345-1353 (1955) and Radding & Steinberg, J Clin. Invest., 39: 1560-1569 (1960). The isolated LDL was then iodinated with ^125 INa by the monochloride procedure of McFarlane, Nature, 102: 53 (1958), as modified for lipoproteins according to Bilheimer et al., Biochim. Biophys. Acta. 260: 212-221 (1972). To remove free iodine, the LDL preparation was subjected to column chromatography on a Sephadex G-25M disposable mini-column (Pharmacia PD-10) and was dialized against 0.15 M NaCl and […] EDTA, pH 7.4. The specific activity of all LDL preparations ranged between 160-300 cpm/mg of LDL proteins. ^125 I-LDL was stored at 4° C. and was sterilized by filtration through a 0.45 um membrane just prior to incubation with the treated fibroblast and hepatoblastoma cell cultures and control cultures.
(§3) For binding studies, a fixed concentration of 10 ug/ml of ^125 I-LDL was added directly to the monolayers of the confluent culture medium (at or near the 96th hour) and incubation was continued for a further 4 hours at 37° C. for fibroblasts and 4° C. for HepG2 cells. After this incubation, the culture dishes were placed on ice, the medium was removed, and the cell monolayers were washed as described in Goldstein & Brown, J. Biol. Chem., 249: 5153-5162 (1974). The monolayers were then scraped off the dishes with a teflon policeman and were solubilized with 1 ml of 0.1 N NaOH.
(§4) Cell-associated radioactivity was measured in a Packard auto gamma scintillation spectrometer Model 5160, and cell protein was measured by the method of Lowry et al., J. Biol. Chem., 193: 265-275 (1951), using bovine serum albumin as a standard. Total ^125 I-LDL binding was expressed as the mass of ^125 I-LDL (mg) per mg of cell protein.
For purposes of comparison, ^125 I-LDL and cholesterol assays were also conducted in cultures prepared according to the above methods, but incubated with 26-hydroxycholesterol in one set of experiments and with the sterol 26-thiacholesterol in another set of experiments. These sterols were obtained according to known methods, similar to those described above for 26-aminocholesterol.

HepG2 Cells = test: Total 125I-LDL binding to HepG2 cells; format: cell-based, human; settings: for I-LDL BINDING: HepG2, 10 ug/ml 125I-LDL, 4 h, 4° C., n = 3, untreated 36.0; for LDL-binding (in words): HepG2 / hepatic cells
Description: HepG2 cells were obtained from Dr. Barbara Knowles of the Wistar Institute, Pennsylvania. The HepG2 stock monolayers were maintained under the same conditions as the fibroblast monolayers, in a medium comprising MEM supplemented with 10% heat-inactivated FBS, and 1% (v/v) each of penicillin-streptomycin solution, non-essential and essential amino acids, and L-glutamine.
For experiments using HepG2 cells, confluent stock monolayers were washed once with Dulbecco's PBS, dissociated with 0.05-0.02% trypsin-EDTA followed by treatment with deoxyribonuclease I (0.1%), and were seeded (3.0×10^6) under identical conditions. The experimental MEM contained 25% (v/v) D2 O, 9% (v/v) delipidated FBS, and 1% (v/v) each of heat-inactivated FBS, penicillin-streptomycin, essential and non-essential amino acids, L-glutamine and 20 mM HEPES.
as §1, §2, §3
as §4, with “protein. […]” for “protein.”

Compound | 125I-LDL BINDING ([1]; 0.156 uM, human fibroblasts) | 125I-LDL BINDING ([1]; 0.312 uM, human fibroblasts) | 125I-LDL BINDING ([1]; 0.625 uM, human fibroblasts) | LDL-binding (in words) [1] | potency in comparison (in words) ([1]; human fibroblasts, versus 26-hydroxycholesterol) | I-LDL BINDING (HepG2 Cells; 0.156 uM) | I-LDL BINDING (HepG2 Cells; 0.312 uM) | I-LDL BINDING (HepG2 Cells; 0.625 uM) | LDL-binding (in words) (HepG2 Cells) | 125I-LDL BINDING ([1]; 5.0 uM, human fibroblasts) | 125I-LDL BINDING ([1]; 10.0 uM, human fibroblasts) | 125I-LDL BINDING ([1]; 20.0 uM, human fibroblasts) | I-LDL BINDING (HepG2 Cells; 5.0 uM) | I-LDL BINDING (HepG2 Cells; 10.0 uM) | I-LDL BINDING (HepG2 Cells; 20.0 uM)
C[C@@H](CN)CCC[C@@H](C)[C@H]1CC[C@H]2[C@@H]3CC=C4C[C@@H](O)CC[C@]4(C)[C@H]3CC[C@]12C [26-NH2, 26-aminocholesterol] | 29.6 +/- 1.1 ug LDL protein per mg cell pro | 22.6 +/- 5.4 ug LDL protein per mg cell pro | 13.3 +/- 1.6 ug LDL protein per mg cell pro | significant reductions; also recorded: downregulates LDL binding; also recorded: selectively inhibits and reduces LDL binding | significantly more potent | 40.9 +/- 3.1 ug LDL protein per mg cell pro | 43.9 +/- 4.0 ug LDL protein per mg cell pro | 52.4 +/- 8.8 ug LDL protein per mg cell pro | do not provide a similar reduction; also recorded: little or no effect; also recorded: no impact |  |  |  |  |  | 
CC(CO)CCC[C@@H](C)[C@H]1CC[C@H]2[C@@H]3CC=C4C[C@@H](O)CC[C@]4(C)[C@H]3CC[C@]12C (stereo partly drawn) [26-OH, 26-hydroxycholesterol] |  |  | 22.0 +/- 2.4 ug LDL protein per mg cell pro | significant reductions |  |  |  | 53.6 +/- 1.3 ug LDL protein per mg cell pro | do not provide a similar reduction |  |  |  |  |  | 
CC(CS)CCC[C@@H](C)[C@H]1CC[C@H]2[C@@H]3CC=C4C[C@@H](O)CC[C@]4(C)[C@H]3CC[C@]12C (stereo partly drawn) [26-SH] |  |  |  | no impact |  |  |  |  | no impact | 37.9 +/- 1.8 ug LDL protein per mg cell pro | 25.7 +/- 0.7 ug LDL protein per mg cell pro | 35.7 +/- 4.8 ug LDL protein per mg cell pro | 37.8 +/- 3.4 ug LDL protein per mg cell pro | 45.8 +/- 3.9 ug LDL protein per mg cell pro | 35.7 +/- 4.8 ug LDL protein per mg cell pro
